Measured values from patent US5216165A, “N-substituted aminoquinolines as analgesic agents” (American Home Products Corporation, priority 1992, dated 1993).
Where a name gives a salt, the structure may show the parent alone. Read-outs that look alike come from different tables or passages of the source.

Tests used:
[1] = system: bradykinin-induced writhing response; test: inhibition of the writhing response induced in mice by exogenous administration of bradykinin; type: in vivo, mice (male CD-1)
BK2 receptor = target: T1, BK2 receptor (Cavia porcellus, UniProt O70526); test: competition with tritiated bradykinin (3H-BK) for BK2 receptor sites in guinea pig ileum; type: binding; details: for Activity (reference compounds, 3H-BK binding): screened at 100 μM
T1 construct: The distal portion of the ileum is removed and placed in ice cold homogenization buffer; from tissue; host or cells: distal ileum of adult male Hartley strain guinea pig, washed 50,000×g pellet of homogenate
T1 sequence (O70526 1-372): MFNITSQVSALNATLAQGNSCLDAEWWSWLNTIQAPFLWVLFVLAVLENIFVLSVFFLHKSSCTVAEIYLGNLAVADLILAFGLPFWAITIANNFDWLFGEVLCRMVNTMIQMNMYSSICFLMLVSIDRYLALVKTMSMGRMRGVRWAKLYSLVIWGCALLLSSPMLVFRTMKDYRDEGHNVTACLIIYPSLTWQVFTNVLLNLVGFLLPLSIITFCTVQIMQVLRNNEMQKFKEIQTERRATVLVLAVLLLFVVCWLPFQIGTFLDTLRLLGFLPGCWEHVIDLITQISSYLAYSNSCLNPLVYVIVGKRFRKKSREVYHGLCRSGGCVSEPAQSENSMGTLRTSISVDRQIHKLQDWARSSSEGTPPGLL
Experimental: This assay is employed to identify compounds which compete specifically with tritiated bradykinin (^3 H-BK) for BK2 receptor sites in guinea pig ileum.
The assay is carried out as follows:
A 350-500 g adult male Hartley strain guinea pig is euthanized by stunning followed by decapitation. The distal portion of the ileum is removed and placed in ice cold homogenization buffer [25 mM N-tris(hydroxymethyl)methyl-2-aminoethane sulfonic acid (TES) 1 mM 1,10-phenanthroline, adjusted to pH 6.8 with NH4 OH]. The contents of the ileal lumen are rinsed out with cold homogenization buffer. The tissue is cut into small pieces and homogenized in 20 volumes of homogenization buffer using a Brinkmann Polytron homogenizer equipped with a PTA 10 TS generator. The tissue is homogenized for 10 seconds, three times, at setting 5.
The homogenate is filtered through a surgical gauze sponge and centrifuged at 50,000×g for 20 minutes at 4° C. The supernatant fluid is discarded and the homogenization and centrifugation procedure is repeated. After discarding the supernatant fluid, the final pellet is resuspended in 40 volumes of assay buffer [25 mM TES, pH=6.8, 1 mM 1,10-phenanthroline, 1 mM dithiothreitol, 2 μM captopril, 140 μg/ml bacitracin and 0.1% bovine serum albumin (BSA)]. The homogenate is filtered once more through a surgical gauze sponge and kept on ice until use.
The assay is performed using only polypropylene pipet tips and polypropylene test tubes. Each tube receives 100 μl of 800 pM ^3 H-BK, 100 μl of the test compound solution or vehicle (TES assay buffer), and 100 μl of 25 mg/ml tissue homogenate in a total volume of 1 ml. The final concentration of ^3 H-BK is 80 pM. The final tissue concentration is 2.5 mg/ml. Compounds are screened at 100 μM. Nonspecific binding is determined in the presence of 1 μM unlabeled bradykinin. All determinations are made in triplicate. Three 100 μl aliquots of the 800 pM 3 H-BK working solution are added directly to scintillation vials to determine the total added radioactivity.
The tubes are incubated for 90 minutes at 25° C. while being gently agitated on an orbital shaker. Bound ligand is separated from free ligand, using Whatman GF/B glass fiber filters (pretreated with 0.1% aqueous polyethyleneimine made neutral with HCl). A Brandel receptor binding harvester is used. Assay tubes and glass fiber filters are rinsed three times with 3 ml of cold physiological saline.
The filter discs are transferred to 20 ml scintillation vials. Ten ml of aqueous sample LSC cocktail (Aquassure, New England Nuclear) is added to each vial. After capping, the vials are agitated for 5 minutes on an orbital shaker. The samples are counted for ten minutes in a refrigerated liquid scintillation counter.
The following values are obtained:
Bx Total binding in the presence of the test compound
C Control specific binding. C=Bt -Bns
D Specific binding in the presence of the test compound. D=Bx -Bns
Percent of control: D/C×100
Percent Inhibition: (1-D/C)×100
After calculation of Percent of Control for each dilution, the values are analyzed and the IC50 with its 95% confidence limits is determined on a Hewlett Packard 9816 computer using the program "PS-NONLIN" (generalizednon-linear regression with inverse prediction and graphics).

[2] = guinea pig ileum homogenate, 80 pM 3H-BK, 90 min, 25° C., pH 6.8, read-out: IC50
[3] = 30 mg/kg i.p., bradykinin 0.5 mg/kg i.p. after PGE2
[4] = bradykinin 0.5 mg/kg i.p. after PGE2
[5] = guinea pig ileum homogenate, 80 pM 3H-BK

Molecule	IC50 (BK2 receptor; [2]) [µM]	% Inhibition at 30 mg/kg i.p. [1, 3] [%]	further results
CC(=O)Nc1ccc(O)cc1 [Acetaminophen, reference compound]	–	–	% inhibition of writhing ([1]; at 300 mg/kg p.o. (reference compound acetaminophen)): 20%
CCCCN1CCC(NCc2ccc(Nc3ccnc4cc(Cl)ccc34)cc2)CC1 [Example 1, N-[4-[[(1-Butyl-4-piperidinyl)amino]methyl]phenyl]-7-chloro-4-quinolinamine]	8.4	13.1	% Inhibition at 200 mg/kg p.o. [1, 4]: 7.1%
CCCCN1CCC(N(Cc2ccc(Nc3ccnc4cc(Cl)ccc34)cc2)C(C)=O)CC1 [Example 2, N-(1-Butyl-4-piperidinyl)-N-[[4-[(7-chloro-4-quinolinyl)amino]phenyl]methyl]acetamide]	6	51.0	% Inhibition at 200 mg/kg p.o. [1, 4]: 26.0%
CCCCN1CCC(N(Cc2ccc(Nc3ccnc4ccccc34)cc2)C(C)=O)CC1 [Example 3, N-(1-Butyl-4-piperidinyl)-N-[[4-(4-quinolinylamino)phenyl]methyl]acetamide]	10.8	–	–
CCCCN1CCC(N(Cc2ccc(Nc3ccnc4cc(Cl)ccc34)cc2)C(=O)c2ccccc2)CC1 [Example 4, N-(1-Butyl-4-piperidinyl)-N-[[4-[7-chloro-4-quinolinyl)amino]phenyl]methyl]benzamide, hydrochloride]	2	40.0	–
CCCCN1CCC(N(Cc2ccc(Nc3ccnc4cc(Cl)ccc34)cc2)C(=O)CCc2ccccc2)CC1.Cl [Example 5, N-(1-Butyl-4-piperidinyl)-N-[[4-[(7-chloro-4-quinolinyl)amino]phenyl]methyl]benzenepropanamide, hydrochloride]	1.6	85.0	% Inhibition at 200 mg/kg p.o. [1, 4]: 27.0%
CCCCN1CCC(N(Cc2ccc(Nc3ccnc4cc(Cl)ccc34)cc2)C(=O)C(F)(F)C(F)(F)C(F)(F)F)CC1.Cl [Example 6, N-(1-Butyl-4-piperidinyl)-N-[[4-[(7-chloro-4-quinolinyl)amino]phenyl]-methyl]-2,2,3,3,4,4,4-heptafluorobutanamide, hydrochloride]	–	–	IC50 (BK2 receptor): 4.3 µM; % Inhibition at 30 mg/kg i.p. ([1]; mouse, in vivo): 68.0%
CCCCN1CCC(N(Cc2ccc(Nc3ccnc4cc(Cl)ccc34)cc2)C(=O)C(F)(F)F)CC1.Cl [Example 7, N-(1-butyl-4-piperidinyl)-N-[[4-[(7-chloro-4-quinolinyl)amino]-phenyl]methyl]-2,2,2-trifluoroacetamide, hydrochloride]	2.4	44.0	–
CCCCN1CCC(N(Cc2ccc(Nc3ccnc4cc(Cl)ccc34)cc2)C(=O)CCC)CC1.Cl [Example 8, N-(1-Butyl-4-piperidinyl)-N-[[4-[(7-chloro-4-quinolinyl)-amino]phenyl]methyl]butanamide, hydrochloride]	1.2	80.0	% Inhibition at 200 mg/kg p.o. [1, 4]: 58.0%
CCN(CC)C(=O)c1ccc(CN2CCC(NCc3ccc(Nc4ccnc5cc(Cl)ccc45)cc3)CC2)cc1.Cl [Example 9, 4-[[4-[[[4-[(7-Chloro-4-quinolinyl)amino]phenyl]methyl]amino]-1-piperidinyl]methyl]-N,N-diethylbenzamide, hydrochloride]	0.77	0.0	–
Clc1ccc2c(Nc3ccc(CNC4CCN(Cc5ccccc5)CC4)cc3)ccnc2c1 [Example 10, 7-Chloro-N-[4-[[[1-(phenylmethyl)-4-piperidinyl]amino]methyl]phenyl]-4-quinolinamine]	4	2.5	–
CCCC(=O)N(Cc1ccc(Nc2ccnc3cc(Cl)ccc23)cc1)C1CCN(Cc2ccc(C(=O)N(CC)CC)cc2)CC1 [Example 12, 4-[[4-[[[4-[(7-Chloro-4-quinolinyl)amino]phenyl]methyl]-(1-oxobutyl)amino]-1-piperidinyl]methyl]-N,N-diethylbenzamide, hydrochloride, 0.76 hydrate]	2.7	5	–
CCN(CC)C(=O)CCCCCN1CCC(NCc2ccc(Nc3ccnc4cc(Cl)ccc34)cc2)CC1 [Example 13, 4-[[[4-[(7-Chloro-4-quinolinyl)amino]phenyl]methyl]amino]-N,N-diethyl-1-piperidinehexanamide, tris(trifluoroacetate), 0.42 hydrate]	3.9	43	–
CCCC(=O)N(Cc1ccc(Nc2ccnc3cc(Cl)ccc23)cc1)C1CCN(CCCCCC(=O)N(CC)CC)CC1 [Example 14, 4-[[[4-[(7-Chloro-4-quinolinyl)amino]phenyl]methyl](1-oxobutyl)amino]-N,N-diethyl-1-piperidinehexanamide, 0.56 hydrate]	5.5	81	% Inhibition at 200 mg/kg p.o. [1, 4]: 46%
O=C(c1ccccc1)N1CCC(NCc2ccc(Nc3ccnc4cc(Cl)ccc34)cc2)CC1 [Example 15, 1-Benzoyl-N-[[[4-[(7-chloro-4-quinolinyl)amino]phenyl]methyl]-4-piperidinanaminetrifluoroacetate (1:2), 1.03 hydrate]	13.8	43	–
CCCCCCCCCCCC(=O)N(Cc1ccc(Nc2ccnc3cc(Cl)ccc23)cc1)C1CCN(CCCCCC(=O)N(CC)CC)CC1.Cl [Example 16, 4-[[[4-[(7-Chloro-4-quinolinyl)amino]phenyl]methyl](1-oxododecyl)-amino]-N,N-diethyl-1-piperidinehexanamide, hydrochloride]	3.8	30	–
CC(C)Cc1ccc(C(C)C(=O)O)cc1 (centres unmarked) [Ibuprofen, reference compound]	–	–	% inhibition of writhing ([1]; at 200 mg/kg p.o. (reference compound ibuprofen)): 43%
CC(C(=O)O)c1cccc(C(=O)c2ccccc2)c1 (centres unmarked) [Ketoprofen, reference compound]	–	–	% inhibition of writhing ([1]; mouse, in vivo, po, 100 mg/kg): 52%
CN1CC[C@]23c4c5ccc(O)c4O[C@H]2[C@@H](O)C=C[C@H]3[C@H]1C5 [Morphine, reference compound]	–	–	ED50 ([1]; Mus musculus, po): 4.5 mg/kg
Des Arg^9 --BK: BK1 Agonist (RPPGFSPF; Bradykinin; UniProt P01042 381-388, looked up, fragment) [reference compound]	–	–	Activity (reference compounds, 3H-BK binding) (BK2 receptor; [5]): No Activity
DesArg^9 --Leu^8 BK: BK1 Antagonist [reference compound]	–	–	Activity (reference compounds, 3H-BK binding) (BK2 receptor; [5]): No Activity
Thi^5,8 --DPhe^7 --BK [reference compound]	–	–	IC50 (BK2 receptor; guinea pig ileum homogenate, 80 pM 3H-BK, 90 min, 25° C., pH 6.8, read-out: IC50 (reference compounds)): 0.069 µM
